Test results published in patent US9169254B2, “Spiroimidazolone derivative” (Chugai Seiyaku Kabushiki Kaisha, priority 2009, dated 2015).

The compounds below were run against T1, human PTH1 receptor (Homo sapiens, UniProt Q03431) (assay: In vitro cAMP signal activity in HKRK-B7 cells (LLC-PK1 cells overexpressing the human PTH1 receptor)). Details: 0.1 µM.
T1 sequence (Q03431 27-593): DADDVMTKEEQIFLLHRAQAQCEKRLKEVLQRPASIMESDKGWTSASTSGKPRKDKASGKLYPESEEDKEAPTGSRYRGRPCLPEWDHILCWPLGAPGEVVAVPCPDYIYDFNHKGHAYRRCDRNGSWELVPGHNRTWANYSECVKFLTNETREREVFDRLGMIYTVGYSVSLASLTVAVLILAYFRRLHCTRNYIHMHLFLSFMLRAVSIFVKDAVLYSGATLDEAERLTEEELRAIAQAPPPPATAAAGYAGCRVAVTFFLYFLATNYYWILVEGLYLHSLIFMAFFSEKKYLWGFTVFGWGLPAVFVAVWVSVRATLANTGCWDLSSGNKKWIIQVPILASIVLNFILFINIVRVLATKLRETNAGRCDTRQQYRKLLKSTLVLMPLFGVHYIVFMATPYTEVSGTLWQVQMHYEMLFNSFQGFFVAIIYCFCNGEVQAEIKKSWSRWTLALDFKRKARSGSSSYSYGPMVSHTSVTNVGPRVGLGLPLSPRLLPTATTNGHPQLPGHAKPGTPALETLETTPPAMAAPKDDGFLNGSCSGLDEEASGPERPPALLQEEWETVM
Type: cell-based

For `Cc1cc(N(C)C(N)=O)cc(C)c1CCS(=O)(=O)N1CCC2(CC1)N=C(C1CCC([Si](C)(C)C)CC1)NC2=O` (stereo not shown) [Compound 1137, 1-(3,5-Dimethyl-4-{2-[4-oxo-2-(4-trimethylsilanyl-cyclohexyl)-1,3,8-triaza-spiro[4.5]dec-1-ene-8-sulfonyl]-ethyl}-phenyl)-1-methyl-urea], the “cAMP production activity (%)” value was 82%.

Same assay, conditions: HKRK-B7 cells; compound at 1×10^−3 M; cAMP produced as percentage of that produced by hPTH(1-34) at 100 nM

Compared with `Cc1cc(OC[C@H](O)CO)cc(C)c1CCS(=O)(=O)N1CCC2(CC1)N=C(c1cccc(OCCCC(F)(F)C(F)(F)F)c1)NC2=O` [Compound 1328, 8-{2-[4-((R)-2,3-Dihydroxy-propoxy)-2,6-dimethyl-phenyl]-ethanesulfonyl}-2-[3-(4,4,5,5,5-pentafluoro-pentyloxy)-phenyl]-1,3,8-triaza-spiro[4.5]dec-1-en-4-one], `Cc1cc(C(=O)N2CCN(CCCO)CC2)ccc1CCS(=O)(=O)N1CCC2(CC1)N=C(c1cccc(C(F)(F)F)c1)NC2=O` [Compound 366, 8-(2-{4-[4-(3-hydroxy-propyl)-piperazine-1-carbonyl]-2-methyl-phenyl}-ethanesulfonyl)-2-(3-trifluoromethyl-phenyl)-1,3,8-triaza-spiro[4.5]dec-1-en-4-one] is lower in “cAMP production activity (%)” value: 93% for the first, 85% for the second.

Compared with `Cc1cc(C(=O)N2CCC(C)(O)CC2)cc(C)c1/C=C/S(=O)(=O)N1CCC2(CC1)N=C(c1ccc(Cl)c(OC(C)(C)C(F)(F)F)c1)NC2=O` [Compound 1210, 2-[4-chloro-3-(2,2,2-trifluoro-1,1-dimethyl-ethoxy)-phenyl]-8-{(E)-2-[4-(4-hydroxy-4-methyl-piperidine-1-carbonyl)-2,6-dimethyl-phenyl]-ethenesulfonyl}-1,3,8-triaza-spiro[4.5]dec-1-en-4-one], `Cc1cc(C(=O)N2CCC(C)(O)CC2)cc(C)c1CCS(=O)(=O)N1CCC2(CC1)N=C(C1CCC(CCC(F)(F)F)CC1)NC2=O` (stereo not shown) [Compound 1380, 8-{2-[4-(4-hydroxy-4-methyl-piperidine-1-carbonyl)-2,6-dimethyl-phenyl]-ethanesulfonyl}-2-[4-(3,3,3-trifluoro-propyl)-cyclohexyl]-1,3,8-triaza-spiro[4.5]dec-1-en-4-one] is higher in “cAMP production activity (%)” value: 86% for the first, 109% for the second.

`Cc1cc(C(=O)N(C)C)ccc1CCS(=O)(=O)N1CCC2(CC1)N=C(Cc1cccc(C(F)(F)F)c1)NC2=O` [Compound 135, 3,N,N-trimethyl-4-{2-[4-oxo-2-(3-trifluoromethyl-benzyl)-1,3,8-triaza-spiro[4.5]dec-1-ene-8-sulfonyl]-ethyl}-benzamide] and `Cc1cc(C(=O)N2CCN(CCN3CCOCC3)CC2)ccc1CCS(=O)(=O)N1CCC2(CC1)N=C(c1cccc(C(F)(F)F)c1)NC2=O` [Compound 363, 8-(2-{2-methyl-4-[4-(2-morpholin-4-yl-ethyl)-piperazine-1-carbonyl]-phenyl}-ethanesulfonyl)-2-(3-trifluoromethyl-phenyl)-1,3,8-triaza-spiro[4.5]dec-1-en-4-one] are the same in “cAMP production activity (%)” value: 67% for the first, 67% for the second.

First: CCCCCCCCCC1=NC2(CCN(S(=O)(=O)/C=C/c3ccc(N4C(=O)CNC4=O)cc3C)CC2)C(=O)N1 [Compound 536, 3-{3-Methyl-4-[(E)-2-(2-nonyl-4-oxo-1,3,8-triaza-spiro[4.5]dec-1-ene-8-sulfonyl)-vinyl]-phenyl}-imidazolidine-2,4-dione]
Second: O=C1NC(Cc2ccccc2)=NC12CCN(S(=O)(=O)c1cccc(Cl)c1)CC2 [Compound 7, 2-benzyl-8-(3-chloro-benzenesulfonyl)-1,3,8-triaza-spiro[4.5]dec-1-en-4-one]
The “cAMP production activity (%)” value of the first is higher: 72% for the first, 13% for the second.

In the case of `O=C(NCc1ccccc1)c1cccc(C2=NC3(CCN(S(=O)(=O)c4cccc(Cl)c4)CC3)C(=O)N2)c1` [Compound 350, N-benzyl-3-[8-(3-chloro-benzenesulfonyl)-4-oxo-1,3,8-triaza-spiro[4.5]dec-1-en-2-yl]-benzamide], the “cAMP production activity (%)” value is reported as 5.5%.
